Reference: article PMC2784932 (Biochemistry, 2009)

Tests used:
T4Y = assay: Effect of isolated Phe on self-association by turbidity; settings: T4Y c=7mg/ml, 44°C, PBS, 1peptide:60F
FT4Y = assay: as above; settings: FT4Y c=3mg/ml, 46°C, data not shown
(Pro-Hyp-Gly)10 = assay: DSC of triple-helical peptide in presence of Phe; settings: PBS pH 7, peptide c=1mg/ml, molar ratio peptide:Phe = 1:200
[1] = target: T4, type IV collagen model peptide (POG)3QOGLOGLOG(POG)4; assay: dynamic light scattering
[2] = target: T4, type IV collagen model peptide (POG)3QOGLOGLOG(POG)4; assay: critical concentration

| stoichiometry N [1] | critical concentration [2] [mg/mL] | Compound | effect on self-association of T4Y (T4Y) | effect on self-association of FT4Y (FT4Y) | effect on thermal stability of (Pro-Hyp-Gly)10 by DSC ((Pro-Hyp-Gly)10) |
| --- | --- | --- | --- | --- | --- |
| – | – | N[C@@H](Cc1ccccc1)C(=O)O [Phe, L-phenylalanine] | substantial delay in self-association | substantial delay in self-association | slight destabilization |
| 3 | 5.9 | T4, type IV collagen model peptide (POG)3QOGLOGLOG(POG)4 | – | – | – |
